Data from patent US11840686B2, “Modulation of prekallikrein (PKK) expression” (Ionis Pharmaceuticals, Inc., priority 2013, dated 2023).
Strand notation (5' to 3'): a small letter for the sugar, then the base; units joined by * are phosphorothioate-linked, units joined directly phosphodiester-linked; [ ] holds rarer units or linkages, { } end groups; capitals alone tell only the bases. e = 2'-O-(2-methoxyethyl) (MOE); [5mC] = 5-methylcytosine; d = 2'-deoxy (DNA)

Key:
human PKK mRNA [1] = test: Dose-dependent antisense inhibition of human PKK in HepaRG cells, 0.19-5.00 uM (Example 5); format: cell-based
In short: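 HepaRG cells (20,000/well) were electroporated with antisense oligonucleotide at 0.19, 0.56, 1.67 and 5.00 μM and treated for about 16 hours. PKK mRNA was quantified by qRT-PCR with primer probe set RTS3454, normalised to RIBOGREEN total RNA, and IC50 was derived per oligonucleotide.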

human PKK mRNA [2] = test: Antisense inhibition of human PKK mRNA in HepaRG cells, 5,000 nM (Example 2); format: cell-based; conditions: electroporation with 5,000 nM antisense oligonucleotide, PKK mRNA by RT-PCR (RTS3454), relative to untreated control cells
In short: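 Percent inhibition of PKK mRNA is reported relative to untreated cells, after adjustment for total RNA by RIBOGREEN. Gapmers of 16–20 nucleosides with 2′-MOE wings were delivered at 5,000 nM by electroporation into HepaRG cells and left for roughly 24 hours before RNA isolation.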

[3] = HepaRG cells, electroporation, approximately 16 hours, Table 37
[4] = 4 point dose response, HepaRG cells, Table 37
[5] = HepaRG cells, approximately 24 hours, Table 6 experiment
[6] = HepaRG cells, electroporation, approximately 16 hours, Table 36
[7] = 4 point dose response, HepaRG cells, Table 36
[8] = Table 7, HepaRG cells, approx. 24 hours
[9] = HepaRG cells, electroporation, approximately 16 hours, Table 39
[10] = 4 point dose response, HepaRG cells, Table 39
[11] = HepaRG cells, electroporation, approximately 16 hours, Table 40
[12] = Table 34, HepaRG, electroporation, ~16 h
[13] = Table 34, PKK mRNA, HepaRG, electroporation, ~16 h
[14] = Table 8, HepaRG cells, approx. 24 hours
[15] = HepaRG cells, electroporation, approximately 16 hours, Table 41
[16] = 4 point dose response, HepaRG cells, Table 41
[17] = Table 9 experiment, HepaRG cells, 20,000 cells per well, approx. 24 hours
[18] = Table 10 experiment, HepaRG cells, 20,000 cells per well, approx. 24 hours

547349 (antisense e[5mC]*eT*eT*e[5mC]*eA*dA*d[5mC]*dA*d[5mC]*dT*dG*d[5mC]*dT*dA*dA*e[5mC]*e[5mC]*eT*eT*eA) [compound 547349]
percent inhibition of PKK at 0.19 μM (human PKK mRNA [1]; [3]): 0%
percent inhibition of PKK at 0.56 μM (human PKK mRNA [1]; [3]): 8%
percent inhibition of PKK at 1.67 μM (human PKK mRNA [1]; [3]): 66%
percent inhibition of PKK at 5.00 μM (human PKK mRNA [1]; [3]): 76%
IC50 (human PKK mRNA [1]; [4]): 1600 nM
% inhibition (human PKK mRNA [2]; [5]): 88%

547360 (eA*eA*e[5mC]*e[5mC]*eA*dA*dT*dT*dT*d[5mC]*dT*dG*dA*dA*dA*eG*eG*eG*e[5mC]*eA; antisense) [compound 547360]
percent inhibition of PKK at 0.19 μM (human PKK mRNA [1]; [3]): 8%
percent inhibition of PKK at 0.56 μM (human PKK mRNA [1]; [3]): 27%
percent inhibition of PKK at 1.67 μM (human PKK mRNA [1]; [3]): 76%
percent inhibition of PKK at 5.00 μM (human PKK mRNA [1]; [3]): 76%
IC50 (human PKK mRNA [1]; [4]): 800 nM
% inhibition (human PKK mRNA [2]; [5]): 88%

547364 (eG*eA*eA*e[5mC]*e[5mC]*d[5mC]*dT*dG*dG*d[5mC]*dA*dA*d[5mC]*dA*dT*e[5mC]*e[5mC]*eA*e[5mC]*eA; antisense) [compound 547364]
percent inhibition of PKK at 0.19 μM (human PKK mRNA [1]; [6]): 38%
percent inhibition of PKK at 0.56 μM (human PKK mRNA [1]; [6]): 47%
percent inhibition of PKK at 1.67 μM (human PKK mRNA [1]; [6]): 54%
percent inhibition of PKK at 5.00 μM (human PKK mRNA [1]; [6]): 89%
IC50 (human PKK mRNA [1]; [7]): 600 nM
% inhibition (human PKK mRNA [2]; [8]): 92%

547366 (eG*eG*eA*eG*eT*dG*dA*dG*dA*dA*d[5mC]*d[5mC]*d[5mC]*dT*dG*eG*e[5mC]*eA*eA*e[5mC]; antisense) [compound 547366]
percent inhibition of PKK at 0.19 μM (human PKK mRNA [1]; [9]): 0%
percent inhibition of PKK at 0.56 μM (human PKK mRNA [1]; [9]): 45%
percent inhibition of PKK at 1.67 μM (human PKK mRNA [1]; [9]): 68%
percent inhibition of PKK at 5.00 μM (human PKK mRNA [1]; [9]): 91%
IC50 (human PKK mRNA [1]; [10]): 1200 nM
% inhibition (human PKK mRNA [2]; [8]): 86%

547368 (eG*e[5mC]*eA*eT*e[5mC]*dT*dG*dG*dA*dG*dT*dG*dA*dG*dA*eA*e[5mC]*e[5mC]*e[5mC]*eT; antisense) [compound 547368]
percent inhibition of PKK at 0.19 μM (human PKK mRNA [1]; [3]): 0%
percent inhibition of PKK at 0.56 μM (human PKK mRNA [1]; [3]): 0%
percent inhibition of PKK at 1.67 μM (human PKK mRNA [1]; [3]): 31%
percent inhibition of PKK at 5.00 μM (human PKK mRNA [1]; [3]): 80%
IC50 (human PKK mRNA [1]; [4]): 2500 nM
% inhibition (human PKK mRNA [2]; [8]): 89%

547373 (eG*e[5mC]*eA*eG*eA*dT*dG*dG*dT*d[5mC]*d[5mC]*dG*dA*d[5mC]*dA*e[5mC]*eA*e[5mC]*eA*eA; antisense) [compound 547373]
percent inhibition of PKK at 0.19 μM (human PKK mRNA [1]; [6]): 20%
percent inhibition of PKK at 0.56 μM (human PKK mRNA [1]; [6]): 7%
percent inhibition of PKK at 1.67 μM (human PKK mRNA [1]; [6]): 49%
percent inhibition of PKK at 5.00 μM (human PKK mRNA [1]; [6]): 86%
IC50 (human PKK mRNA [1]; [7]): 1100 nM
% inhibition (human PKK mRNA [2]; [8]): 90%

547374 (eG*eA*eT*eA*eG*dG*dT*dG*d[5mC]*dA*dG*dA*dT*dG*dG*eT*e[5mC]*e[5mC]*eG*eA; antisense) [compound 547374]
percent inhibition of PKK at 0.19 μM (human PKK mRNA [1]; [11]): 0%
percent inhibition of PKK at 0.56 μM (human PKK mRNA [1]; [11]): 15%
percent inhibition of PKK at 1.67 μM (human PKK mRNA [1]; [11]): 24%
percent inhibition of PKK at 5.00 μM (human PKK mRNA [1]; [11]): 44%
IC50 (human PKK mRNA [1]; 4 point dose response, HepaRG cells, Table 40): > 5000 nM
% inhibition (human PKK mRNA [2]; [8]): 81%

547413 (eG*eT*eG*eA*eA*dA*dA*dA*d[5mC]*dT*dG*dA*d[5mC]*dA*dG*e[5mC]*eG*eA*eA*eT; antisense) [compound 547413]
percent inhibition of PKK at 0.19 μM (human PKK mRNA [1]; [12]): 0%
percent inhibition of PKK at 0.56 μM (human PKK mRNA [1]; [12]): 0%
percent inhibition of PKK at 1.67 μM (human PKK mRNA [1]; [12]): 41%
percent inhibition of PKK at 5.00 μM (human PKK mRNA [1]; [12]): 83%
IC50 (human PKK mRNA [1]; [13]): 2200 nM
% inhibition (human PKK mRNA [2]; [14]): 94%

547423 (e[5mC]*e[5mC]*e[5mC]*eT*eT*dG*dT*dG*dT*d[5mC]*d[5mC]*d[5mC]*dA*dT*dA*e[5mC]*eG*e[5mC]*eA*eA; antisense) [compound 547423]
percent inhibition of PKK at 0.19 0μM (human PKK mRNA [1]; [15]): 78%
percent inhibition of PKK at 0.56 0μM (human PKK mRNA [1]; [15]): 92%
IC50 (human PKK mRNA [1]; [16]): < 200 nM
percent inhibition of PKK at 0.19 μM (human PKK mRNA [1]; [12]): 37%
percent inhibition of PKK at 0.56 μM (human PKK mRNA [1]; [12]): 50%
percent inhibition of PKK at 1.67 μM (human PKK mRNA [1]; [12]): 92%
percent inhibition of PKK at 5.00 μM (human PKK mRNA [1]; [12]): 90%
IC50 (human PKK mRNA [1]; [13]): 400 nM
% inhibition (human PKK mRNA [2]; [14]): 95%

547426 (eG*eA*eG*eT*eA*dA*d[5mC]*d[5mC]*dA*dG*dA*dG*d[5mC]*dT*d[5mC]*e[5mC]*e[5mC]*eT*eT*eG; antisense) [compound 547426]
percent inhibition of PKK at 0.19 μM (human PKK mRNA [1]; [6]): 19%
percent inhibition of PKK at 0.56 μM (human PKK mRNA [1]; [6]): 50%
percent inhibition of PKK at 1.67 μM (human PKK mRNA [1]; [6]): 84%
percent inhibition of PKK at 5.00 μM (human PKK mRNA [1]; [6]): 93%
IC50 (human PKK mRNA [1]; [7]): 600 nM
percent inhibition of PKK mRNA, 0.19 μM (human PKK mRNA [1]; HepaRG cells, 0.19 μM antisense oligonucleotide): 18%
percent inhibition of PKK mRNA, 0.56 μM (human PKK mRNA [1]; HepaRG cells, 0.56 μM antisense oligonucleotide): 35%
percent inhibition of PKK mRNA, 1.67 μM (human PKK mRNA [1]; HepaRG cells, 1.67 μM antisense oligonucleotide): 80%
percent inhibition of PKK mRNA, 5.00 μM (human PKK mRNA [1]; HepaRG cells, 5.00 μM antisense oligonucleotide): 95%
IC50 (human PKK mRNA [1]; HepaRG cells, 0.19-5.00 μM): 700 nM
% inhibition (human PKK mRNA [2]; [14]): 92%

547445 (antisense eG*e[5mC]*e[5mC]*eA*e[5mC]*dT*dA*dT*dA*dG*dA*dT*dG*d[5mC]*dG*e[5mC]*e[5mC]*eA*eA*eA) [compound 547445]
percent inhibition of PKK at 5.00 μM (human PKK mRNA [1]; [15]): 91%
percent inhibition of PKK at 0.19 0μM (human PKK mRNA [1]; [15]): 80%
percent inhibition of PKK at 0.56 0μM (human PKK mRNA [1]; [15]): 87%
percent inhibition of PKK at 1.67 1μM (human PKK mRNA [1]; 1.67 1μM, HepaRG cells, electroporation, approximately 16 hours, Table 41): 98%
IC50 (human PKK mRNA [1]; [16]): < 200 nM
percent inhibition of PKK at 0.19 μM (human PKK mRNA [1]; [12]): 41%
percent inhibition of PKK at 0.56 μM (human PKK mRNA [1]; [12]): 75%
percent inhibition of PKK at 1.67 μM (human PKK mRNA [1]; [12]): 82%
percent inhibition of PKK at 5.00 μM (human PKK mRNA [1]; [12]): 88%
IC50 (human PKK mRNA [1]; [13]): 200 nM
% inhibition (human PKK mRNA [2]; [14]): 97%

547453 (antisense eT*e[5mC]*eA*eT*eG*dA*dT*dT*d[5mC]*d[5mC]*d[5mC]*dT*dT*d[5mC]*dT*eG*eA*eG*eA*e[5mC]) [compound 547453]
percent inhibition of PKK at 0.19 μM (human PKK mRNA [1]; [9]): 25%
percent inhibition of PKK at 0.56 μM (human PKK mRNA [1]; [9]): 40%
percent inhibition of PKK at 1.67 μM (human PKK mRNA [1]; [9]): 54%
percent inhibition of PKK at 5.00 μM (human PKK mRNA [1]; [9]): 92%
IC50 (human PKK mRNA [1]; [10]): 800 nM
% inhibition (human PKK mRNA [2]; [17]): 81%
% inhibition (human PKK mRNA [2]; [18]): 81%

547454 (antisense eT*eA*eT*e[5mC]*eA*dT*dG*dA*dT*dT*d[5mC]*d[5mC]*d[5mC]*dT*dT*e[5mC]*eT*eG*eA*eG) [compound 547454]
percent inhibition of PKK at 0.19 μM (human PKK mRNA [1]; [6]): 19%
percent inhibition of PKK at 0.56 μM (human PKK mRNA [1]; [6]): 40%
percent inhibition of PKK at 1.67 μM (human PKK mRNA [1]; [6]): 58%
percent inhibition of PKK at 5.00 μM (human PKK mRNA [1]; [6]): 92%
IC50 (human PKK mRNA [1]; [7]): 900 nM
% inhibition (human PKK mRNA [2]; [17]): 92%
% inhibition (human PKK mRNA [2]; [18]): 78%

547456 (antisense eG*e[5mC]*eG*eA*eT*dA*dT*d[5mC]*dA*dT*dG*dA*dT*dT*d[5mC]*e[5mC]*e[5mC]*eT*eT*e[5mC]) [compound 547456]
percent inhibition of PKK at 0.19 μM (human PKK mRNA [1]; [12]): 12%
percent inhibition of PKK at 0.56 μM (human PKK mRNA [1]; [12]): 67%
percent inhibition of PKK at 1.67 μM (human PKK mRNA [1]; [12]): 66%
percent inhibition of PKK at 5.00 μM (human PKK mRNA [1]; [12]): 80%
IC50 (human PKK mRNA [1]; [13]): 1000 nM
% inhibition (human PKK mRNA [2]; [17]): 89%
% inhibition (human PKK mRNA [2]; [18]): 96%
